Experimental data: patent US8324251B2, “Cyclic modulators of chemokine receptor activity” (Bristol-Myers Squibb Company, priority 2006, dated 2012)
Counter-ions that a name gives are not always drawn.

What follows are compounds tested against T1, CCR1 (Homo sapiens, UniProt P32246) (assay: Antagonism of MIP-1α binding to human THP-1 cells (125-I MIP-1α radioligand binding)). Conditions: 125-I labeled human MIP-1α, THP-1 cells expressing endogenous CCR1; read-out: CCR1 Binding Ki (n = 1 unless otherwise noted).
T1 construct: the THP-1 cell line, which expresses the endogenous CCR1 receptor; endogenous in cells; host or cells: THP-1 cells (human monocytic cell line)
T1 sequence (P32246 1-355): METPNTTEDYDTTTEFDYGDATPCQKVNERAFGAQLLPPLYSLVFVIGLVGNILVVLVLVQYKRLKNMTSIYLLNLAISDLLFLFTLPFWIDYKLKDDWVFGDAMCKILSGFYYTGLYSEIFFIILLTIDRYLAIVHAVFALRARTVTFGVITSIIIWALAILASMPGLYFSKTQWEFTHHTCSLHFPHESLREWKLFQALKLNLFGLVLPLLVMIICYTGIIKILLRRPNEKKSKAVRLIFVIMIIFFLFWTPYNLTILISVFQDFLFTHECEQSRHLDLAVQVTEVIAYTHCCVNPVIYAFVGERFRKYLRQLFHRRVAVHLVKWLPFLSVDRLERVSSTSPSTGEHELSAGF
Experimental: Antagonism of MIP-1α Binding to Human THP-1 Cells
Compounds of the present invention have activity in the antagonism of MIP-1α binding to human THP-1 cells described here.
Millipore filter plates (#MABVN1250) are treated with 100 μl of binding buffer (0.5% bovine serum albumin, 20 mM HEPES buffer and 5 mM magnesium chloride in RPMI 1640 media) for thirty minutes at room temperature. To measure binding, 50 μl of binding buffer, with or without a known concentration of compound, is combined with 50 μl of ^125-I labeled human MIP-1α (to give a final concentration of […] radioligand) and 50 μl of binding buffer containing 5×10^5 cells. Cells used for such binding assays can include the THP-1 cell line, which expresses the endogenous CCR1 receptor, or human peripheral blood mononuclear cells, isolated by Ficoll-Hypaque gradient centrifugation, or human monocytes (Weiner et al., J. Immunol. Methods, 1980, 36, 89). The mixture of compound, cells and radioligand is incubated at room temperature for thirty minutes. Plates are placed onto a vacuum manifold, vacuum applied, and the plates washed three times with binding buffer containing 0.5M NaCl. The plastic skirt is removed from the plate, the plate allowed to air dry, the wells punched out and counted. The percent inhibition of binding is calculated using the total counts obtained in the absence of any competing compound and the background binding determined by addition of 100 nM MIP-1α in place of the test compound.
Compounds of the present invention were tested in the assay described immediately above and the results, including results from the chiral separation of Example 1c, shown in Table 2 below were obtained.

| SMILES | Ki [nM] |
| --- | --- |
| NC(=O)Nc1cc(Cl)ccc1OCC(O)C1CCN(Cc2ccc(Cl)cc2)CC1 (racemic) [Example 1a, 1-(5-Chloro-2-(2-(1-(4-chlorobenzyl)piperidin-4-yl)-2-hydroxyethoxy)phenyl)urea, TFA salt] | 4.49 ± 1.15 |
| OC(COc1ccc(Cl)cc1)C1CCN(Cc2ccc(Cl)cc2)CC1 (racemic) [Example 1i, 1-(1-(4-Chlorobenzyl)piperidin-4-yl)-2-(4-chlorophenoxy)ethanol, TFA salt] | 111 |
| OC(COc1ccc(Cl)cc1)C1CCN(Cc2ccccc2)CC1 (racemic) [Example 1l, 1-(1-Benzylpiperidin-4-yl)-2-(4-chlorophenoxy)ethanol, TFA salt] | 6440 |
| NC(=O)Nc1cc(Cl)ccc1OCC(O)C1CCN(Cc2ccc(Cl)c(Cl)c2)CC1 (single isomer, unassigned) [1c Enantiomer 1] | 1500 |
| NC(=O)Nc1cc(Cl)ccc1OCC(O)C1CCN(Cc2ccc(Cl)c(Cl)c2)CC1 (single isomer, unassigned) [1c Enantiomer 2] | 6.1 ± 0.71 |
